# Experimental data from ChEMBL document CHEMBL2007661, “Compounds: GSK PKIS; Assays: UNC Frye lab” (2012).
# “And” between values parts separate entries of the source, which are not always exact repeats. Equal values may be shown once.
# Key:
# [1] = target: T1, Serine/threonine-protein kinase TBK1 (Homo sapiens) (UniProt Q9UHD2); conditions: at 1 µM
# T1 sequence (whole entry): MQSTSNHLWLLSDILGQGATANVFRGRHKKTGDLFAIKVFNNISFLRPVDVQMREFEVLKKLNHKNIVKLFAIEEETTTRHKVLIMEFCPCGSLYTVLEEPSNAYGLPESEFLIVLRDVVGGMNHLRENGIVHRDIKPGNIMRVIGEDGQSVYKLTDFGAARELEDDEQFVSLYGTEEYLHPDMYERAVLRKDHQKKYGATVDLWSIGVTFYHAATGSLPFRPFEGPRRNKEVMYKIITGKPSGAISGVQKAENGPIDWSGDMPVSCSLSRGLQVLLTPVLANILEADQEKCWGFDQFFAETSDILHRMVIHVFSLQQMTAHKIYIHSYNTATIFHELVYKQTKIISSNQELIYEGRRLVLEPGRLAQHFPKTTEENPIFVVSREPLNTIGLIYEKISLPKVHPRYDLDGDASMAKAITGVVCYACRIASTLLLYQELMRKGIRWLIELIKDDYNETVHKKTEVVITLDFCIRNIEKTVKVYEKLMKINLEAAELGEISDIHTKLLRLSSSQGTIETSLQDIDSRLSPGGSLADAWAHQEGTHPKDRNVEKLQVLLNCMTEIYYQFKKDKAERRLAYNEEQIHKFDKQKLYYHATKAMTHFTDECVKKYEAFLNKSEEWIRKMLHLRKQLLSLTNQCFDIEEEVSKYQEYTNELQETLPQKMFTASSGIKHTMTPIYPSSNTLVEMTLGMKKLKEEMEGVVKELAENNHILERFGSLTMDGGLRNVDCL
# [2] = target: T2, Tyrosine-protein kinase Mer (Homo sapiens) (UniProt Q12866); conditions: at 10 µM
# T2 sequence (whole entry): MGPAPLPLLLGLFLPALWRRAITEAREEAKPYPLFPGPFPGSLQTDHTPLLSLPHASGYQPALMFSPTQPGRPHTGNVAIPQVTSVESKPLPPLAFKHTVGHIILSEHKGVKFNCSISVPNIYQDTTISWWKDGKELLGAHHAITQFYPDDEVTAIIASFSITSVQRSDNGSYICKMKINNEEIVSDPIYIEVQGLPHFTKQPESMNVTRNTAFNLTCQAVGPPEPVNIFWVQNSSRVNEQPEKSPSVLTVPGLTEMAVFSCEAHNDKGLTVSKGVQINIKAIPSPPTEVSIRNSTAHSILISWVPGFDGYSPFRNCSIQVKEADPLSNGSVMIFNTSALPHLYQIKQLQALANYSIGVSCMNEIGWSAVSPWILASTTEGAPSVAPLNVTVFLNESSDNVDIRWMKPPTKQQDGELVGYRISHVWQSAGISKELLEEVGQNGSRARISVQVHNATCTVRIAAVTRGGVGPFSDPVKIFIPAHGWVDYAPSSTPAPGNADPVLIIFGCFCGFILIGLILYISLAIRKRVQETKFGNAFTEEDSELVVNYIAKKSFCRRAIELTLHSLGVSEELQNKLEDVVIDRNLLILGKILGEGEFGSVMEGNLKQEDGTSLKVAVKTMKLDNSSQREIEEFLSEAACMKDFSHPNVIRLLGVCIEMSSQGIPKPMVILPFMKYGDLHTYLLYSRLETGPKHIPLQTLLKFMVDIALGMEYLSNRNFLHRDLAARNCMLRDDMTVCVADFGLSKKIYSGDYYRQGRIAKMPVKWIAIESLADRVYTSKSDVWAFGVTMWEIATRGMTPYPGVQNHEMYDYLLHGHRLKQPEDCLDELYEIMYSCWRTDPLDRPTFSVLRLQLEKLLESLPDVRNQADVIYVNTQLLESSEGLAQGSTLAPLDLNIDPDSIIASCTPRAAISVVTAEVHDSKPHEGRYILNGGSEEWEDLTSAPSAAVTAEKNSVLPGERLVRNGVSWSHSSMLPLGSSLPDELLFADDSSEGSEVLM
inhibition [1],inhibition [2],SMILES
7% and 2%,-5%,COc1cc(N2CCN(C(C)C)CC2)ccc1Nc1nc(Nc2cccc3ncccc23)c2cc[nH]c2n1
-2%,7%,Cc1nnc(-c2ccc(C)c(-c3ccc(C(=O)Nc4cccc(C#N)c4)cc3)c2)o1
6% and 5%,-3%,NCc1ccc(-n2c(-c3nonc3N)nc3cnccc32)cc1
-4% and -3%,50%,COc1cc(C)c(N(C)C(=O)CN(C)C)cc1Nc1nc(Nc2cccc(F)c2C(N)=O)c2cc[nH]c2n1
16% and 17%,-1%,NS(=O)(=O)c1ccc(Nc2cc(-c3ccc(O)c(F)c3)n[nH]2)cc1
3% and 2%,101%,CN(c1ccc(NC(=O)NCCN2CCOCC2)cc1)c1ccnc(Nc2ccc(CS(C)(=O)=O)cc2)n1
-8% and -4%,-3%,CCn1c(-c2nonc2N)nc2c(N3CCCC3)nccc21
-2%,-10%,COC(=O)Nc1nc2cc(Oc3cccc(NC(=O)Nc4cc(C(F)(F)F)ccc4F)c3)ccc2[nH]1
-3% and -1%,-2%,CS(=O)(=O)CCNCc1ccc(-c2ccc3ncnc(Nc4ccc(OCc5ccccc5)c(C(F)(F)F)c4)c3c2)o1
2% and 5%,-5%,CNC(=O)c1cncc(/C=C/c2ccccc2C)c1
29% and 25%,-5%,NS(=O)(=O)c1ccc(N/N=C2\C(=O)Nc3cccc(CCc4ccncc4)c32)cc1
1% and 6%,-4%,Cc1cc(O)cc(C)c1/C=C/c1cncc(C(=O)N(C)C)c1
2% and 1%,0%,c1ccc(Nc2ncc(-c3ccccc3)o2)cc1
-10% and -6%,-6%,Cc1cccc(-c2n[nH]cc2-c2ccc3ncccc3n2)n1
6% and 5%,-3%,COc1cccc(-n2ncc3c(N/N=C/c4cccc(F)c4)ncnc32)c1
1% and 5%,-8%,Cc1nn(C)c2cc(N(C)c3ccnc(Nc4cccc(S(N)(=O)=O)c4)n3)ccc12
4% and 2%,-8%,COc1cccc(-n2nc(C)c3c(N/N=C(\C)c4ccncc4)ncnc32)c1
-1% and -2%,-3%,CS(=O)(=O)CCNCc1ccc(-c2ccc3ncnc(Nc4ccc(OCc5ccccc5)cc4)c3c2)o1
0% and 2%,27%,O=C(Nc1ccc(Oc2ccc3[nH]c(NC(=O)c4ccco4)nc3c2)cc1)Nc1cc(C(F)(F)F)ccc1F
24% and 28%,3%,COc1cc2c(cc1Nc1nc(N3CCc4ccccc43)c3cc[nH]c3n1)N(C(=O)CN(C)C)CC2
26% and 31%,15%,O=C(O[C@H]1CN[C@H](C#Cc2cc3ncnc(Nc4ccc5c(cnn5Cc5ccccc5)c4)c3s2)C1)N1CCOCC1

# Continued, compound first:
SMILES,inhibition [1],inhibition [2]
NS(=O)(=O)c1ccc(N/N=C2\C(=O)Nc3ccc(C(=O)NCc4ccncc4)cc32)cc1,59% and 60%,-8%
O=S(=O)(CCNCc1ccc(-c2ccc3ncnc(Nc4ccc(OCc5cccc(F)c5)c(Cl)c4)c3c2)o1)c1ccccc1,12% and 18%,72%
Nc1nccc(-c2c(-c3ccc(F)cc3)nn3cc(C(F)(F)F)ccc23)n1,-3% and 1%,88%
CNC(=O)c1ncccc1Nc1nc(Nc2cc3c(cc2OC)CCCN3C(=O)CN(C)C)nc2[nH]ccc12,8% and 12%,77%
CC1(C)CC(n2cnc(-c3ccc(F)cc3)c2-c2ccnc(N)n2)CC(C)(C)N1,-5% and -3%,-5%
O=C1NC(=O)C(N2CCc3ccccc32)=C1c1ccc(Cl)cc1,1%,-6%
CS(=O)(=O)Nc1ccc(-c2cc(-c3ccccc3)cc(C(N)=O)c2N)cc1,-2% and -4%,-2%
Nc1nonc1-c1nc2cnccc2n1C1CC1,8%,48%
COc1cc(C=NNc2ncnc3c2cnn3-c2ccccc2)ccc1O,38% and 42%,0%
O=C(Nc1ccc(Oc2ccc3[nH]c(NC(=O)c4ccccc4)nc3c2)cc1)Nc1cc(C(F)(F)F)ccc1F,6% and 3%,78%
CCn1c(-c2nonc2N)nc2cnc(Oc3cccc(NC(=O)c4ccc(N(C)C)cc4)c3)cc21,4% and 1%,-6%
NS(=O)(=O)c1ccc(N/N=C2\C(=O)Nc3ccc(C(=O)NCCCn4ccnc4)cc32)cc1,42% and 41%,-4%
CC(C)c1ccc(Nc2nccc(-c3cnn4ncccc34)n2)cc1,18% and 19%,32%
OCc1ccc(-c2nc(-c3ccccn3)c(-c3ccc4c(c3)OCO4)[nH]2)cc1,-6% and -5%,-6%
COc1cc(/C=N/Nc2ncnc3c2cnn3C(C)C)ccc1O,9% and 8%,2%
CCCN1CCC(c2ccc(Nc3nc(Nc4cc(F)ccc4C(N)=O)c4cc[nH]c4n3)c(OC)c2)CC1,13% and 7%,5%
COc1cc(Nc2ncc3c(C)nc(-c4cccc(C(F)(F)F)c4)n3n2)cc(OC)c1OC,53% and 45%,6%
COc1ccc(C2=C(N3CCc4ccccc43)C(=O)NC2=O)cc1,0% and 3%,3%

SMILES,inhibition [1],inhibition [2]
COc1cc(C)c(NC(=O)CN(C)C)cc1Nc1nc(Nc2cccc(F)c2C(N)=O)c2cc[nH]c2n1,30% and 32%,52%
c1ccc(-c2nc3n(c2-c2ccc4c(c2)OCO4)CCC3)nc1,5%,-1%
C[C@@H](Oc1cc(-n2cnc3ccc(OCC4CCN(C)CC4)cc32)sc1C(N)=O)c1ccccc1C(F)(F)F,11% and 4%,5%
CC1=C(C(=O)Nc2ccc3[nH]ncc3c2)C(c2ccc(Cl)c(Cl)c2)CC(=O)N1 (configuration not stated),3% and 2%,3%
CCN1CCC(CC(=O)Nc2n[nH]c3nc(-c4cccs4)c(Br)cc23)CC1,8% and 6%,-2%
CC(C)(CO)CNC(=O)c1ccc2c(c1)/C(=N/Nc1ccc(S(N)(=O)=O)cc1)C(=O)N2,87% and 88%,9%
COC(=O)Nc1nc2ccc(S(=O)(=O)c3ccc(NC(=O)Nc4cc(C(F)(F)F)ccc4F)cc3)cc2[nH]1,0%,0%
Cc1ccc2c(-c3ccnc(Nc4ccccc4)n3)c(-c3ccc(F)cc3)nn2n1,-1% and -3%,5%
CCn1c(-c2nonc2N)nc2c(C#CC(C)(C)O)nc(OCCNC)cc21,23% and 19%,-6%
O=C(Nc1n[nH]c2nnc(-c3cccnc3)cc12)C1CC1,5% and 3%,-7%
CCn1c(-c2nonc2N)nc2ccncc21,-4% and -5%,32%
CCn1cc(-c2ccnc3[nH]ccc23)c(-c2cccc(NC(=O)Nc3ccc(OCc4ccccc4)cc3)c2)n1,-4% and -1%,-1%
COc1cc(Nc2ncc(-c3ccccc3)o2)cc(OC)c1OC,35% and 27%,68%
Nc1nc(-c2ccccn2)c(-c2ccc3ncccc3n2)s1,3% and 0%,-5%
COC(=O)Nc1nc2cc(Oc3ccc(NC(=O)Nc4cccc(C(=O)O)c4)cc3)ccc2[nH]1,-5% and -2%,94%
CN(C)C(=O)O[C@H]1CN[C@H](C#Cc2cc3ncnc(Nc4ccc(OCc5cccc(F)c5)c(Cl)c4)c3s2)C1,7% and 8%,2%
CCCN(CCS(C)(=O)=O)Cc1ccc(-c2ccc3ncnc(Nc4ccc(OCc5cccc(F)c5)c(Cl)c4)c3c2)o1,7% and 10%,-3%
